The numbers were not newly measured in paper PMC7709506 (ESMO Open, 2020), which cites them from elsewhere.

For the series the following is noted: patients, phase I/II trial; cited from earlier work.

Regarding `CNC(=O)c1cccc2cc(Oc3ccnc4cc(OCC5(N)CC5)c(OC)cc34)ccc12` [lucitanib], the Hypertension was 91% and the “grade 3 hypertension events” value is 57%.
